Reference: patent US6420438B1, “1-amino-7-isoquinoline derivatives as serine protease inhibitors” (Tularik Limited, priority 1998, dated 2002)

Biological target: T1, human factor Xa (Homo sapiens, UniProt P00742)
T1 construct: Purified human factor Xa; purchased Alexis Corporation, Nottingham, UK
Test: Enzyme inhibition assay, chromogenic substrate pefachrome-FXA
Type: biochemical
Conditions: room temperature, 0.1M phosphate buffer, pH7.4

T1 sequence (P00742 235-488 limits assumed): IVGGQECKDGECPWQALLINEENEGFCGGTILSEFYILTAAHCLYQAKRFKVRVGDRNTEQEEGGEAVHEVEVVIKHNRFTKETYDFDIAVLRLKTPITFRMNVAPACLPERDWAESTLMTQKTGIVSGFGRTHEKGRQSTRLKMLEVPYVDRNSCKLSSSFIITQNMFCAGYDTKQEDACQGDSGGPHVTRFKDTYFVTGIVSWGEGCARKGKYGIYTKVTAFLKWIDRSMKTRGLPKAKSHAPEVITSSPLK
T1 sequence (P00742 41-179 partner limits assumed): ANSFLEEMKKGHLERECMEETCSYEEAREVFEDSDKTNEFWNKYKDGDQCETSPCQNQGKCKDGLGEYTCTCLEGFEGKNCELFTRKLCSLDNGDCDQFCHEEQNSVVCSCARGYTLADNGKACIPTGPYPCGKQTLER

Ki [µM]	Compound
0.008	CN1CCC(C2CCN(C(=O)[C@H](NC(=O)c3ccc4ccnc(N)c4c3)c3ccccc3)CC2)CC1 [Example 75, 1-Aminoisoquinolin-7-oyl-D-phenylglycine-4,4′-(1′-methyl)bipiperidinamide]
155	N=C(N)c1ccccc1 [benzamidine]
